Measured values reported in ChEMBL document CHEMBL5038642, “Synthesis and Antiviral Activities of Neoechinulin B and Its Derivatives” (J Nat Prod, 2022).
Calls of active or inactive are those of the source. The rule behind the calls is not given here.

Assays:
Huh7.5.1 = experiment: Cytotoxicity against human Huh-7.5.1 cells assessed as reduction in cell viability measured at 72 hrs by MTT assay; format: functional
Huh-7.5.1 [1] = experiment: Antagonist activity at LXR (unknown origin) expressed in human Huh-7.5.1 cells transfected with luciferase reporter plasmid containing of LXRE assessed as reduction in T0901317-induced reporter activity at 10 uM measured after 48 hrs by luciferase reporter assay; format: cell-based; details: filed as antagonist
Huh-7.5.1 [2] = experiment: Antagonist activity at LXR (unknown origin) expressed in human Huh-7.5.1 cells transfected with luciferase reporter plasmid containing of LXRE assessed as reduction in T0901317-induced reporter activity at 5 uM measured after 48 hrs by luciferase reporter assay; format: cell-based; details: filed as antagonist
Huh-7.5.1 [3] = experiment: Antagonist activity at LXR (unknown origin) expressed in human Huh-7.5.1 cells transfected with luciferase reporter plasmid containing of LXRE assessed as reduction in T0901317-induced reporter activity at 30 uM measured after 48 hrs by luciferase reporter assay; format: cell-based
Hepatitis C virus = experiment: Antiviral activity against HCV JFH-1 infected in human Huh-7.5.1 cells assessed as reduction in viral replication measured after 72 hrs by chemiluminescent enzyme immunoassay; format: functional, organism-based, Hepacivirus hominis
[4] = Cytotoxicity against African green monkey Vero E6 cells expressing TMPRSS2 assessed as reduction in cell viability incubated for 24 hrs by DAPI staining based confocal microscopic analysis; format: toxicity, Vero C1008; details: chlorocebus sabaeus
SARS-CoV-2 = experiment: Antiviral activity against SARS-CoV-2 WK-251 infected in African green monkey Vero E6 cells expressing TMPRSS2 assessed as reduction in viral RNA replication incubated for 24 hrs by qRT-PCR analysis; format: functional, organism-based, Severe acute respiratory syndrome coronavirus 2; details: for IC50: Severe acute respiratory syndrome coronavirus 2, WK-251, Vero C1008, 24 h

| SMILES | CC50 (Huh7.5.1) [µM] | also measured |
| --- | --- | --- |
| C=c1[nH]c(=O)/c(=C/c2ccc(-c3ccccc3)cc2)[nH]c1=O | > 20 |  |
| C=c1[nH]c(=O)/c(=C/c2ccoc2)[nH]c1=O | > 20 |  |
| C=CC(C)(C)c1[nH]c2ccccc2c1/C=c1\[nH]c(=O)c(=C)[nH]c1=O [NEOECHINULIN B] | > 20 | Activity (Huh-7.5.1 [1]): Active |
| C=CC(C)(C)c1[nH]c2ccccc2c1/C=C1\NC(=O)C(C)(OC)NC1=O (stereo not drawn) [VARIECOLORIN H] | > 20 |  |
| C=c1[nH]c(=O)/c(=C/c2ccc3ccccc3c2)[nH]c1=O | > 20 |  |
| C=c1[nH]c(=O)/c(=C/c2ccc(C(C)(C)C)cc2)[nH]c1=O | > 20 | Activity (Huh-7.5.1 [2]): Active |
| C=c1[nH]c(=O)/c(=C/c2ccc(OC)c(OC)c2)[nH]c1=O | > 20 |  |
| C=c1[nH]c(=O)/c(=C/c2cc(C(C)(C)C)cc(C(C)(C)C)c2)[nH]c1=O | > 20 |  |
| C=c1[nH]c(=O)/c(=C/c2c[nH]c3ccccc23)[nH]c1=O | > 20 |  |
| C=c1[nH]c(=O)/c(=C/c2ccccc2)[nH]c1=O | > 20 | Activity (Huh-7.5.1 [3]): inactive |
| C=c1[nH]c(=O)/c(=C/c2ccsc2)[nH]c1=O | > 20 |  |
| C=c1[nH]c(=O)/c(=C/c2ccc(N(C)C)cc2)[nH]c1=O | > 20 |  |
| C=c1[nH]c(=O)/c(=C/c2ccc(C)cc2)[nH]c1=O | > 20 |  |
| C=c1[nH]c(=O)/c(=C/c2ccc(OC)cc2)[nH]c1=O | > 20 |  |
| C=CC(C)(C)c1[nH]c2ccccc2c1C[C@@H]1NC(=O)[C@H](C)NC1=O [PREECHINULIN] | > 20 |  |
| C=c1[nH]c(=O)/c(=C/c2cc(OC)c(OC)c(OC)c2)[nH]c1=O | > 20 |  |
| C=c1[nH]c(=O)/c(=C/c2ccc3ccc4cccc5ccc2c3c45)[nH]c1=O | > 20 | IC50 (Hepatitis C virus; JFH-1, Huh-7.5.1, 72 h): 3.9 µM; IC90 (Hepatitis C virus; JFH-1, Huh-7.5.1, time 72 hrs): > 20 µM; CC50 at 24 h [4]: > 100 µM; IC50 (SARS-CoV-2): > 40 µM; IC90 (SARS-CoV-2; Severe acute respiratory syndrome coronavirus 2, WK-251, Vero C1008, time 24 hrs): > 40 µM |
| C=c1[nH]c(=O)/c(=C/c2ccc(C(F)(F)F)cc2)[nH]c1=O | > 20 | IC50 (SARS-CoV-2): 9.1 µM |
| C=c1[nH]c(=O)/c(=C/c2ccc(C(=O)OC)cc2)[nH]c1=O | > 20 |  |
